The values that follow come from ChEMBL document CHEMBL2046399, “Effect of C-ring modifications on the cytotoxicity of spirostan saponins and related glycosides” (Bioorg Med Chem, 2012).

pIC50: −log10 of the molar value. Activity calls are given as the source filed them. The calls are words filed in the database; no cut-off is given here.

Data set [1] deals with HL-60. The data set is described as follows: Cytotoxicity against human HL60 cells after 72 hrs by MTT assay. Format: functional, cell-based. As to conditions: HL-60, 72 h. For orientation: Formazan colour is commonly taken as a measure of viable cells.
The nature of data set [2]: Cytotoxicity against human PBMC assessed as cell viability at 10 uM after 24 hrs by MTT assay relative to control. The format is cell-based. Conditions: PBMC (peripheral blood mononuclear cells), read-out: Activity.
Data set [3] has as its system HL-60. The data set is described as follows: Cytotoxicity against human HL60 cells assessed as cell viability at 10 uM after 24 hrs by MTT assay relative to control. The format is functional. As to conditions: HL-60, 24 h, read-out: Activity.
Data set [4] in a line: Cytotoxicity against human PBMC assessed as cell viability at 30 uM after 24 hrs by MTT assay relative to control. The format is cell-based. As to conditions: PBMC (peripheral blood mononuclear cells), read-out: Activity.
In data set [5] the test system is HL-60. As to the kind of experiment: Cytotoxicity against human HL60 cells assessed as cell viability at 30 uM after 24 hrs by MTT assay relative to control. Conditions: HL-60, 24 h, read-out: Activity. Format: functional.
The next data set deals with PBMC. As to the kind of experiment: Cytotoxicity against human PBMC at 3 to 60 uM after 24 hrs by MTT assay. The format is cell-based.
The subject of data set [6] is HL-60. As to the kind of experiment: Cytotoxicity against human HL60 cells at 3 to 60 uM after 24 hrs by MTT assay. Format: functional, cell-based.

`C[C@@H]1CC[C@@]2(OC1)O[C@H]1C[C@H]3[C@@H]4CC[C@H]5C[C@@H](O[C@@H]6O[C@H](CO)[C@@H](O[C@@H]7O[C@@H](C)[C@H](O)[C@@H](O)[C@H]7O)[C@H](O)[C@H]6O[C@@H]6O[C@@H](C)[C@H](O)[C@@H](O)[C@H]6O)CC[C@]5(C)[C@H]4CC[C@]3(C)[C@H]1[C@@H]2C` gave a pIC50 in the data set on HL-60 [1] of 5.59. For the same compound, the viability at 24 h, 10 µM in data set [2] came to 45%. For the same compound, the viability at 10 µM in the data set on HL-60 [3] came out at 17%.
As to `C=C1C[C@H]2[C@@H](CC[C@H]3C[C@@H](O[C@@H]4O[C@H](CO)[C@@H](O[C@@H]5O[C@@H](C)[C@H](O)[C@@H](O)[C@H]5O)[C@H](O)[C@H]4O[C@@H]4O[C@@H](C)[C@H](O)[C@@H](O)[C@H]4O)CC[C@@]32C)[C@@H]2C[C@@H]3O[C@]4(CC[C@@H](C)CO4)[C@@H](C)[C@@H]3[C@@]12C`, the negative logarithm of the IC50 (pIC50) in the data set with HL-60 [1] was 5.01. For the same compound, the viability at 24 h, 30 µM in data set [4] was determined as 64.2%. For the same compound, the viability at 30 µM in the data set on HL-60 [5] came to 23%.
As for `C[C@@H]1CC[C@@]2(OC1)O[C@H]1C[C@@H]([C@@H]3CC[C@H]4C[C@@H](O[C@@H]5O[C@H](CO)[C@@H](O[C@@H]6O[C@@H](C)[C@H](O)[C@@H](O)[C@H]6O)[C@H](O)[C@H]5O[C@@H]5O[C@@H](C)[C@H](O)[C@@H](O)[C@H]5O)CC[C@]4(C)[C@H]3CC(=O)O)[C@](C)(O)[C@H]1[C@@H]2C`, in the data set on HL-60 [1], the pIC50 was less than 4.00.
`C[C@@H]1CC[C@@]2(OC1)O[C@H]1C[C@H]3[C@@H]4CC[C@H]5C[C@@H](O[C@@H]6O[C@H](COC(=O)C(C)(C)C)[C@@H](O)[C@H](OC(=O)C(C)(C)C)[C@H]6O)CC[C@]5(C)[C@H]4CC(=O)O[C@]3(C)[C@H]1[C@@H]2C` gave a negative-log IC50 (pIC50) in the data set on HL-60 [1] of 5.00. Further, the Activity entry in the data set on PBMC is recorded as “Toxic”. In addition, the result with HL-60 [6] was Active.
On the same counts, the results for `CO[C@@H]1C[C@H]2[C@@H](CC[C@H]3C[C@@H](O[C@@H]4O[C@H](COC(=O)C(C)(C)C)[C@@H](O)[C@H](OC(=O)C(C)(C)C)[C@H]4O)CC[C@@]32C)[C@@H]2C[C@@H]3O[C@]4(CC[C@@H](C)CO4)[C@@H](C)[C@@H]3[C@@]12C` are 4.72, “Toxic” and “Active”.
On the same counts, the results for `C[C@@H]1CC[C@@]2(OC1)O[C@H]1C[C@H]3[C@@H]4CC[C@H]5C[C@@H](O[C@@H]6O[C@H](COC(=O)C(C)(C)C)[C@@H](O)[C@H](OC(=O)C(C)(C)C)[C@H]6O)CC[C@]5(C)[C@H]4CC[C@]3(C)[C@H]1[C@@H]2C` are 5.05, “Toxic” and “Active”.
For `CO[C@@H]1C[C@H]2[C@@H](CC[C@H]3C[C@@H](O[C@@H]4O[C@H](CO)[C@@H](O[C@@H]5O[C@@H](C)[C@H](O)[C@@H](O)[C@H]5O)[C@H](O)[C@H]4O[C@@H]4O[C@@H](C)[C@H](O)[C@@H](O)[C@H]4O)CC[C@@]32C)[C@@H]2C[C@@H]3O[C@]4(CC[C@@H](C)CO4)[C@@H](C)[C@@H]3[C@@]12C`, the pIC50 in the data set with HL-60 [1] is 4.66.
Turning to `CO[C@H]1C[C@H]2[C@@H](CC[C@H]3C[C@@H](O[C@@H]4O[C@H](COC(=O)C(C)(C)C)[C@@H](O)[C@H](OC(=O)C(C)(C)C)[C@H]4O)CC[C@@]32C)[C@@H]2C[C@@H]3O[C@]4(CC[C@@H](C)CO4)[C@@H](C)[C@@H]3[C@@]12C`, the pIC50 in the data set on HL-60 [1] is 4.67.
Turning to `C[C@@H]1CC[C@@]2(OC1)O[C@H]1C[C@H]3[C@@H]4CC[C@H]5C[C@@H](O[C@@H]6O[C@H](CO)[C@@H](O[C@@H]7O[C@@H](C)[C@H](O)[C@@H](O)[C@H]7O)[C@H](O)[C@H]6O[C@@H]6O[C@@H](C)[C@H](O)[C@@H](O)[C@H]6O)CC[C@]5(C)C4=CC(=O)[C@]3(C)[C@H]1[C@@H]2C`, in the data set on HL-60 [1], the pIC50 was 4.52.
Compound `C=C1C[C@H]2[C@@H](CC[C@H]3C[C@@H](O[C@@H]4O[C@H](COC(=O)C(C)(C)C)[C@@H](O)[C@H](OC(=O)C(C)(C)C)[C@H]4O)CC[C@@]32C)[C@@H]2C[C@@H]3O[C@]4(CC[C@@H](C)CO4)[C@@H](C)[C@@H]3[C@@]12C` had a pIC50 in the data set on HL-60 [1] of 4.80. For the same compound, in the data set with PBMC, the Activity entry was “Toxic”. Also, the result in the data set with HL-60 [6] was Active.
The compound `C[C@@H]1CC[C@@]2(OC1)O[C@H]1C[C@H]3[C@@H]4CC[C@H]5C[C@@H](O[C@@H]6O[C@H](COC(=O)C(C)(C)C)[C@@H](O)[C@H](OC(=O)C(C)(C)C)[C@H]6O)CC[C@]5(C)C4=CC(=O)[C@]3(C)[C@H]1[C@@H]2C` gave a pIC50 in the data set on HL-60 [1] of 5.23.
Compound `CO[C@H]1C[C@H]2[C@@H](CC[C@H]3C[C@@H](O[C@@H]4O[C@H](CO)[C@@H](O[C@@H]5O[C@@H](C)[C@H](O)[C@@H](O)[C@H]5O)[C@H](O)[C@H]4O[C@@H]4O[C@@H](C)[C@H](O)[C@@H](O)[C@H]4O)CC[C@@]32C)[C@@H]2C[C@@H]3O[C@]4(CC[C@@H](C)CO4)[C@@H](C)[C@@H]3[C@@]12C` gave a pIC50 in the data set with HL-60 [1] of 4.50.

By pIC50 is commonly meant the negative decadic logarithm of the IC50, by convention in mol/L. Read a low pIC50 as a large IC50.
